Experimental data published in patent US20050208029A1, “Method of forming pancreatic beta cells from mesenchymal cells” (priority 2002, published 2005).

Tested on: KUSA/A1 cells
Assay: Insulin concentration (ELISA) in supernatant of KUSA/A1 cells cultured 12 days with or without bFGF
Format: cell-based, mouse
Conditions: 2 h after 25.0 mM glucose
Method: The KUSA/A1 cells obtained in Example 1 were treated with trypsin and transferred to a 6-well dish (product of Falcon) so that the cell density might become as low as possible.
The cells were cultured in serum-free DMEM containing insulin, transferrin, progesterone, putrescine and selenium or in DMEM containing 10% FBS at 33° C. for 12 days using an incubator with a CO2 concentration of 5%.
bFGF (recombinant human basic fibroblast growth factor; product of R&D) was added to each of the serum-free or serum-containing wells to a final concentration of 10 ng/ml. Hereafter, unless otherwise specified, cell culture was carried out under the same conditions while medium exchange was conducted at 2-day intervals.
After 12 days of cultivation, the medium in each well was discarded, the cells in each well were washed repeatedly with three portions of PBS. After washing, 2 ml of PBS was added to each well afresh, and cultivation was performed at 33° C. for 2 hours using an incubator with a CO2 concentration of 5%.
After 2 hours of cultivation, the PBS was discarded, 2 ml of DMEM containing 25.0 mM glucose was added afresh, and cultivation was performed at 33° C. for further 2 hours using an incubator with a CO2 concentration of 5%. […]

bFGF: recombinant human basic fibroblast growth factor; product of R&D; used as pancreatic β cell forming agent
insulin detected in the supernatant (DMEM containing bFGF (10 ng/ml) and 10% FBS, below assay sensitivity limit): below 39 pg/mL | insulin detected in the supernatant (serum-free DMEM containing bFGF (10 ng/ml), insulin, transferrin, progesterone, putrescine and selenium): 223 pg/mL
